What was measured:
[1] = target: Plasminogen (Homo sapiens, UniProt P00747); experiment: Inhibition of plasmin
[2] = organism: Homo sapiens; experiment: Antithrombotic activity by measuring the activated partial thromboplastin time(aPPT) in human plasma; type: functional
[3] = Partition coefficient (logP); type: physicochemical; settings: octanol/water
[4] = Inhibition of bovine trypsin; set-up: species or system Bos taurus
[5] = target: Prothrombin (Homo sapiens, UniProt P00734); experiment: Inhibition of human thrombin
[6] = target: Coagulation factor X (Homo sapiens, UniProt P00742); experiment: Inhibition of coagulation factor X
Chain of Coagulation factor X (P00742 41-179 limits assumed): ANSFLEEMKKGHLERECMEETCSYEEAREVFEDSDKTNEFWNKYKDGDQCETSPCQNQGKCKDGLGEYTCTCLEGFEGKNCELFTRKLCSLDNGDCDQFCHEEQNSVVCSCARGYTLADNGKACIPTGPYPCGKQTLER
Chain of Coagulation factor X (P00742 235-488 limits assumed): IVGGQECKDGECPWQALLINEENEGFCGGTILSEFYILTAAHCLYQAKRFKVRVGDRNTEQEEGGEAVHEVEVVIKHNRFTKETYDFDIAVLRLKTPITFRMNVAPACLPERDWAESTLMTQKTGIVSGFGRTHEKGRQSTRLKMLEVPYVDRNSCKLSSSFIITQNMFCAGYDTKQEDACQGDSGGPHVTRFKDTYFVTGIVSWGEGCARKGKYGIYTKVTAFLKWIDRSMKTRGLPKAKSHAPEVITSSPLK

Chain of Plasminogen (P00747 97-580 limits assumed): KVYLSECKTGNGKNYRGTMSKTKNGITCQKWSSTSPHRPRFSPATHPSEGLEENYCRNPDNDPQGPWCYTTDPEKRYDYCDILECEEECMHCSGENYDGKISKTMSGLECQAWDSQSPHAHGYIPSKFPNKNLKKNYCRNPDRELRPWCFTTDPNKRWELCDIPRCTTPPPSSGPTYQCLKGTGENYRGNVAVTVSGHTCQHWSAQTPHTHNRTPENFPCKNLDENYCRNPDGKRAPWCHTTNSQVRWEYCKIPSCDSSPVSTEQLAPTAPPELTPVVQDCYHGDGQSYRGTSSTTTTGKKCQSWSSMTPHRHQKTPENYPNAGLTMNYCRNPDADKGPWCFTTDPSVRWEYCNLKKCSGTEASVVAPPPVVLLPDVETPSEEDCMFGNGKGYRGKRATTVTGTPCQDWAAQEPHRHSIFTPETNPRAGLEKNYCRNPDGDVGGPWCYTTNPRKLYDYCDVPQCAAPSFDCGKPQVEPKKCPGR
Chain of Plasminogen (P00747 581-810 limits assumed): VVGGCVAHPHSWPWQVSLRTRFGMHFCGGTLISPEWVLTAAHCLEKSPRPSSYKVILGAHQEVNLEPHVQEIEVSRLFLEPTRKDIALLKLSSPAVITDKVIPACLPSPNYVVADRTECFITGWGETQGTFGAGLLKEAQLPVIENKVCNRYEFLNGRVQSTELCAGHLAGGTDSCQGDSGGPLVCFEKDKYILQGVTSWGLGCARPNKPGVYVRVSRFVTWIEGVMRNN

SMILES	IC50 [1]	IC50 [5]	IC50 [6]	ED200 [2]	logP [3]	IC50 [4]
CCOC(=O)C(C)(C)c1ccc2c(c1)nc(Cc1ccc(C(=N)N)cc1)c(=O)n2C	75000 nM	10 nM	10600 nM	0.43 µM	0.5	410 nM
CCOC(=O)C1(c2ccc3c(C)cc(Oc4ccc(C(=N)N)cc4)nc3c2)CCCC1	–	30 nM	–	–	–	560 nM
Cn1c(=O)c(Cc2ccc(C(=N)N)cc2)nc2cc(C(C)(C)C(=O)N3CCCC3)ccc21	53000 nM	5 nM	500 nM	0.16 µM	1	320 nM
CC1CCCN(C(=O)C(C)(C)c2ccc3c(c2)nc(Cc2ccc(C(=N)N)cc2)c(=O)n3C)C1 (centres undefined)	–	12 nM	590 nM	0.12 µM	–	–
Cn1c(=O)c(Cc2ccc(C(=N)N)cc2)nc2cc(C(C)(C)C(=O)N3CCCCC3)ccc21	60000 nM	8 nM	400 nM	0.25 µM	–	2200 nM
Cn1c(=O)c(Cc2ccc(C(=N)N)cc2)nc2cc(C3(N(C(=O)CC(=O)O)C4CCCC4)CC3)ccc21	36000 nM	15 nM	3000 nM	0.45 µM	–	550 nM

Continued, in another order:

IC50 [1]	IC50 [5]	IC50 [6]	SMILES	ED200 [2]	logP [3]	IC50 [4]
66000 nM	–	–	Cn1c(=O)c(Cc2ccc(C(=N)N)cc2)nc2cc(C3(C(=O)N4CCCC4)CC3)ccc21	0.095 µM	1.5	–
72000 nM	13 nM	1400 nM	Cn1c(=O)c(Cc2ccc(C(=N)N)cc2)nc2cc(C3(C(=O)N4CCCC4CO)CC3)ccc21 (centres undefined)	0.21 µM	–	850 nM
–	–	12100 nM	CCOC(=O)C(C)(C)c1ccc2c(C)cc(Oc3ccc(C(=N)N)cc3)nc2c1	0.94 µM	1.7	2400 nM
–	–	> 100000 nM	Cn1c(=O)c(Cc2ccc(C(=N)N)cc2)nc2cc(C3(C(=O)O)CC3)ccc21	>10 µM	–	–
68000 nM	190 nM	> 100000 nM	Cn1c(=O)c(Cc2ccc(C(=N)N)cc2)nc2cc(C3(C(=O)N4CCCC4C(=O)NCC(=O)O)CC3)ccc21 (centres undefined)	0.91 µM	–	2400 nM
69000 nM	27 nM	46000 nM	CCOC(=O)C1(c2ccc3c(c2)nc(Cc2ccc(C(=N)N)cc2)c(=O)n3C)CC1	0.67 µM	–	580 nM
> 100000 nM	16 nM	9200 nM	CN(C)C(=O)C(C)(C)c1ccc2c(c1)nc(Cc1ccc(C(=N)N)cc1)c(=O)n2C	0.41 µM	–	9500 nM
–	68 nM	31000 nM	Cn1c(=O)c(Cc2ccc(C(=N)N)cc2)nc2cc(C(C)(C)C(=O)N3CCNCC3)ccc21	0.71 µM	–	–
